This note sets out measurements from US20240351988A1, “ARYL HYDROCARBON RECEPTOR MODULATORS AND THEIR USE IN THE TREATMENT OF DISEASES AND DISORDERS” (Allianthera (Suzhou) Biopharmaceutical Co., Ltd., priority 2021, published 2024).

Some results are limits rather than exact numbers.

The target in experiment [1] is T1, Human Aryl Hydrocarbon Receptor (AhR) (Homo sapiens, UniProt P35869).
T1 construct: purchased INDIGO Bioscience #1B06001-32; host or cells: AhR Reporter Cell (kit's proprietary reporter cells)
T1 sequence (P35869 11-848): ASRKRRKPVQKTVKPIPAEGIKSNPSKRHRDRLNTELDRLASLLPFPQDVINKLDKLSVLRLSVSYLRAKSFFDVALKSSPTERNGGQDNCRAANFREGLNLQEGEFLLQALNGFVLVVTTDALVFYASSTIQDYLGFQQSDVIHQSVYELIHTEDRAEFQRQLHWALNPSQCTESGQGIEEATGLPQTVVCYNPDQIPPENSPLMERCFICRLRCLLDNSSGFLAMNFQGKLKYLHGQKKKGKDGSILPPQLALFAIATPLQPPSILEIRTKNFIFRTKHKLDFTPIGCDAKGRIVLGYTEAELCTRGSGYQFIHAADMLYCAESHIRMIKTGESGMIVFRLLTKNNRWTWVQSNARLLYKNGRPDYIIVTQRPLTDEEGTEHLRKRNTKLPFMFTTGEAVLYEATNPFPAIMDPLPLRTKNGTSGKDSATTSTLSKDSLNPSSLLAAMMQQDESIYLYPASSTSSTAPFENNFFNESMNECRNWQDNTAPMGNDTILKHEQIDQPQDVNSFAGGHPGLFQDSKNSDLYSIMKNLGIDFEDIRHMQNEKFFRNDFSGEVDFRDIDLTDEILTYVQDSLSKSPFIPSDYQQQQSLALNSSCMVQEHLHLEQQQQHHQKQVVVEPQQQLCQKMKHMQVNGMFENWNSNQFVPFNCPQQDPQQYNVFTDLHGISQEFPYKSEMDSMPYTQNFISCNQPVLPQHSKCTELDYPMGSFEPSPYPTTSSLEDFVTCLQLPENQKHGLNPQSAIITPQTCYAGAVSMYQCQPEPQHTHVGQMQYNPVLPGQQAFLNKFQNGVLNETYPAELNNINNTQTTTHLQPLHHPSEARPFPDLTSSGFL
Kind of experiment: AHR antagonist reporter assay in human cell line (INDIGO AhR Reporter Assay System, kynurenic acid activated). The format is cell-based. Particulars: 200 μM kynurenic acid, 24 hours, luciferase; read-out: AhR Reporter Assay KA Antagonist Mode: IC50. In a few lines:
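AhR reporter cells activated with 200 μM kynurenic acid and exposed to compound dilution series in duplicate for 24 h. Firefly luciferase readout, normalized to positive (literature antagonists or unactivated cells) and negative controls.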
A general note: In a reporter assay the amount or activity of a reporter protein is the signal.

In experiment [2] the test system is AHR-regulated gene CYP1A1 in human monocytic U937 cell line. Briefly: AHR-regulated CYP1A1 expression in U937 cells (qPCR, kynurenic acid stimulated). Particulars: U-937, 200 μM KA, 16 hours, CYP1A1 vs GAPDH, read-out: Cyp ANATAG mode assay: IC50. The format is cell-based. The protocol: To evaluate the AHR inhibitory activity of the test compounds, quantitative PCR analysis was used to determine expression level of the AHR-regulated gene CYP1A1 in a human monocytic U937 cell line upon stimulation of 200 μM kynurenic acid (KA) in the absence or presence of AHR inhibitor. U937 cells were seeded at a concentration of 5×10^5 cells/well in 200 μL of growth medium in 96-well cell culture microplates. CYP1A1 expression was induced with 200 μM KA (positive control) in the absence or presence of the test compounds for 16 hours. Human U937 cells were typically incubated with eight different concentrations of test compounds (typical dilution: […], 3.2 nM, 16 nM, 80 nM, 400 nM, 2 μM, 10 μM) and analyzed in duplicate on the same cell culture microplate. After stimulation, the media was removed, the cell RNA was isolated using RNeasy Mini Kit (Qiagen, 74104) and reverse-transcribed to cDNA using PrimeScript RT reagent Kit (Perfect Real Time) (TaKaRa, RR037A). Unstimulated cells were used as the negative control. Taqman probes for human CYP1A1 (Hs01054797_g1) and human GAPDH (Hs02786624_g1) were used to analyze fold expression of CYP1A1 of GAPDH.

The next experiment concerns CT26 tumor cells. Briefly: Anti-tumor activity in mice bearing CT26 tumors. The format is in vivo, BALB/C mouse. Particulars: CT26, female BALB/C; compound 10 mg/kg orally 16 days; anti PD-1 10 mg/kg i.p. twice every week; FIG. 1. The protocol: Female BALB/C mouse was inoculated subcutaneously on the right flank with CT26 tumor cells (3×10^5) in 0.1 ml of RPMI 1640 Medium without serum for tumor development. Mice were randomized into 4 groups according to body weight on Day 4 after inoculation. The tumor-bearing mice were treated with Vehicle, anti PD-1 antibody (RMP1-14, BioXCell Catalog No. BP0146), a AHR antagonist compound as disclosed herein and a combination therapy of a AHR antagonist compound as disclosed herein and the anti PD-1 (or established treatment). The AHR antagonist compound was dosed orally at for example 10 mg/kg alone or in combination with established treatment for 16 days. When the established treatment was PD-1 antibody, the antibody was administered via intraperitoneal injection at 10 mg/kg, twice every week.

As for `CNC(=O)C(C)(C)NC(=O)c1cc(-c2ccc(C(F)(F)F)cc2)nn(-c2cnn(C)c2)c1=O` [Compound 173], the IC50 in experiment [1] and in experiment [2] was < 100 nM each time.

`Cc1nn(C)c2cc(-c3cc(C(=O)N[C@@H](C)CO)c(=O)n(-c4cnn(C)c4)n3)ccc12` [Compound 175]: the figures for the IC50 in experiment [1] and in experiment [2] were < 100 nM and 100 to 400 nM, respectively.

As for `Cc1nn(C)c2cc(-c3cc(C(=O)N[C@@H](C)C(=O)N(C)C)c(=O)n(-c4cnn(C)c4)n3)ccc12` [Compound 176], the 50% inhibitory concentration (IC50) (usually the concentration needed to halve the response being measured) in experiment [1] is < 100 nM; in experiment [2], 100 to 400 nM.

As to `C[C@H](NC(=O)c1cc(-c2ccc(-c3ccc(Cl)cc3)nc2)nn(-c2cnn(C)c2)c1=O)C(=O)N(C)C` [Compound 177], the IC50 in experiment [1] and in experiment [2] was < 100 nM each time.

For the compound `CNC(=O)[C@H](C)NC(=O)c1cc(-c2cnc(-c3ccc(Cl)cc3)nc2)nn(-c2cnn(C)c2)c1=O` [Compound 181], the results for the IC50 in experiment [1] and in experiment [2] were < 100 nM and 100 to 400 nM, respectively.

As for `CNC(=O)[C@H](C)NC(=O)c1cc(-c2ccc(-c3ccc(Cl)cc3)nc2)nn(-c2cnn(C)c2)c1=O` [Compound 183], the concentration for half-maximal inhibition (IC50) in experiment [1] and in experiment [2] was < 100 nM each time.

With `C[C@@H](CO)NC(=O)c1cc(-c2ccc(-c3ccccc3)nc2)nn(-c2cnn(C)c2)c1=O` [Compound 185], the IC50 in experiment [1] and in experiment [2] was < 100 nM each time.

Regarding `C[C@@H](CO)NC(=O)c1cc(-c2cnc(-c3ccc(F)cc3)nc2)nn(-c2cnn(C)c2)c1=O` [Compound 186], the IC50 in experiment [1] and in experiment [2] was < 100 nM throughout.

Turning to `C[C@@H](CO)NC(=O)c1cc(-c2ccc(-c3cccc(F)c3)nc2)nn(-c2cnn(C)c2)c1=O` [Compound 191], the 50% inhibitory concentration (IC50) in experiment [1] and in experiment [2] was < 100 nM throughout.

Take `C[C@@H](CO)NC(=O)c1cc(-c2ccc(-c3ccccc3F)nc2)nn(-c2cnn(C)c2)c1=O` [Compound 192]: the concentration for half-maximal inhibition (IC50) in experiment [1] and in experiment [2] was < 100 nM each time.

As for `C[C@@H](CO)NC(=O)c1cc(-c2cnc(-c3cccc(F)c3)nc2)nn(-c2cnn(C)c2)c1=O` [Compound 193], the half-inhibitory concentration (IC50) in experiment [1] and in experiment [2] was < 100 nM throughout.

Turning to `C[C@@H](CO)NC(=O)c1cc(-c2cnc(-c3ccccc3F)nc2)nn(-c2cnn(C)c2)c1=O` [Compound 194], the IC50 in experiment [1] and in experiment [2] was < 100 nM each time.

As for `C[C@@H](CO)NC(=O)c1cc(-c2ccc(-c3ccc(F)nc3)nc2)nn(-c2cnn(C)c2)c1=O` [Compound 195], the concentration for half-maximal inhibition (IC50) in experiment [1] and in experiment [2] was < 100 nM throughout.

Regarding `C[C@@H](CO)NC(=O)c1cc(-c2ccc(C3CCOCC3)cc2)nn(-c2cnn(C)c2)c1=O` [Compound 197], the IC50 in experiment [1] and in experiment [2] was 100 to 400 nM each time.

Take `C[C@@H](CO)NC(=O)c1cc(-c2ccc(C3CCCCC3)cc2)nn(-c2cnn(C)c2)c1=O` [Compound 198]: the half-maximal inhibitory concentration (IC50) in experiment [1] and in experiment [2] was < 100 nM each time.

For `C[C@@H](CO)NC(=O)c1cc(-c2cnc(-c3ccc(F)cc3)nc2)nc(-c2cnn(C)c2)n1` [Compound 199], the half-maximal inhibitory concentration (IC50) in experiment [1] and in experiment [2] was < 100 nM in each case.

For the compound `C[C@@H](CO)n1cnc2c(-c3cnn(C)c3)nc(-c3cnc(-c4ccc(F)cc4)nc3)cc2c1=O` [Compound 200], the IC50 in experiment [1] and in experiment [2] was < 100 nM in each case.

In the case of `CCc1ccc(-c2cc(C(=O)N[C@@H](C)CO)c(=O)n(-c3cnn(C)c3)n2)cc1` [Compound 201], the IC50 in experiment [1] and in experiment [2] was < 100 nM in each case.

Take `CC(C)c1ccc(-c2cc(C(=O)N[C@@H](C)CO)c(=O)n(-c3cnn(C)c3)n2)cc1` [Compound 202]: the half-inhibitory concentration (IC50) in experiment [1] and in experiment [2] was < 100 nM throughout.

Turning to `C[C@@H](CO)NC(=O)c1cc(-c2ccc(C(C)(C)C)cc2)nn(-c2cnn(C)c2)c1=O` [Compound 203], the concentration for half-maximal inhibition (IC50) in experiment [1] and in experiment [2] was < 100 nM each time.

Regarding `CCc1ccc(-c2cc(C(=O)N[C@@H](C)COC)c(=O)n(-c3cnn(C)c3)n2)cc1` [Compound 204], the IC50 in experiment [1] is 100 to 400 nM; in experiment [2] it was < 100 nM.

On to `COC[C@H](C)NC(=O)c1cc(-c2ccc(C(C)C)cc2)nn(-c2cnn(C)c2)c1=O` [Compound 206], for which the half-inhibitory concentration (IC50) in experiment [1] and in experiment [2] was < 100 nM throughout.

With `C[C@@H](CO)NC(=O)c1cc(N2CCC(c3ccc(F)cc3)CC2)nn(-c2cnn(C)c2)c1=O` [Compound 207], the IC50 is > 400 nM in experiment [1] and 100 to 400 nM in experiment [2].

`C[C@@H](CO)NC(=O)c1cc(N2CCN(c3ccc(F)cc3)CC2)nn(-c2cnn(C)c2)c1=O` [Compound 208]: the concentration for half-maximal inhibition (IC50) in experiment [1] and in experiment [2] was < 100 nM each time.

Take `C[C@@H](CO)NC(=O)c1cc(-c2ccc(-c3ccc(F)cc3)nc2)nn(-c2cnn(C)c2)c1=O` [example 184]: the half-maximal inhibitory concentration (IC50) in experiment [1] and in experiment [2] was < 100 nM throughout. The “tumor volume compared with Vehicle group” value in the experiment on CT26 tumor cells is given as “significantly reduced tumor volume”.
